Assay results from PubChem BioAssay AID330 (DTP/NCI, 2004).
Values joined by “and” are separate entries in the source; they are usually repeats but may differ in a detail not shown here. Identical values can stand only once. Inconclusive results and toxic doses are left out. Peptide text beside a SMILES is read from it.

Tested on: P388 leukemia ip, CD2F1 mice, survival T/C
Experiment: NCI In Vivo Anticancer Drug Screen. Data for tumor model P388 Leukemia (intraperitoneal) in CD2F1 (CDF1) mice
Conditions: endpoint: median survival time, higher = longer survival
Procedure, shortened: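 Mice carrying the transplanted tumor received test compound or vehicle. Survival was recorded in each group, and the value is the treated-group measurement divided by that of the vehicle-treated control group.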

[1] = dose: 60.0 mg/kg/injection, schedule: Q01DX005 (ip), vehicle: saline
[2] = dose: 120.0 mg/kg/injection, schedule: Q01DX005 (ip), vehicle: saline
[3] = dose: 12.5 mg/kg/injection, schedule: Q01DX005 (ip), vehicle: saline with Tween-80
[4] = dose: 50.0 mg/kg/injection, schedule: Q01DX005 (ip), vehicle: saline with Tween-80
[5] = dose: 50.0 mg/kg/injection, schedule: Q01DX009 (ip), vehicle: saline with Tween-80
[6] = dose: 100.0 mg/kg/injection, schedule: Q01DX009 (ip), vehicle: saline with Tween-80
[7] = dose: 200.0 mg/kg/injection, schedule: Q01DX009 (ip), vehicle: saline with Tween-80
[8] = dose: 50.0 mg/kg/injection, schedule: Q01DX009 (ip), vehicle: saline
[9] = dose: 100.0 mg/kg/injection, schedule: Q01DX009 (ip), vehicle: saline
[10] = dose: 100.0 mg/kg/injection, schedule: Q01DX001 (ip), vehicle: saline
[11] = dose: 200.0 mg/kg/injection, schedule: Q01DX001 (ip), vehicle: saline
[12] = dose: 400.0 mg/kg/injection, schedule: Q01DX001 (ip), vehicle: saline
[13] = dose: 50.0 mg/kg/injection, schedule: Q01DX005 (ip), vehicle: Klucel (hydroxypropylcellulose) (HPC)
[14] = dose: 100.0 mg/kg/injection, schedule: Q01DX005 (ip), vehicle: Klucel (hydroxypropylcellulose) (HPC)
[15] = dose: 200.0 mg/kg/injection, schedule: Q01DX005 (ip), vehicle: Klucel (hydroxypropylcellulose) (HPC)
[16] = dose: 50.0 mg/kg/injection, schedule: Q01DX009 (ip), vehicle: Klucel (hydroxypropylcellulose) (HPC)
[17] = dose: 100.0 mg/kg/injection, schedule: Q01DX009 (ip), vehicle: Klucel (hydroxypropylcellulose) (HPC)
[18] = dose: 6.25 mg/kg/injection, schedule: Q01DX009 (ip), vehicle: water
[19] = dose: 12.5 mg/kg/injection, schedule: Q01DX009 (ip), vehicle: water

Compound: CN(C)CCCN=C(N)CSP(=O)(O)O
- T/C [1]: 98 % of control
- T/C [2]: 104 % of control

Compound: O=C(NCc1cc(CNC(=O)c2cccc(O)c2O)cc(CNC(=O)c2cccc(O)c2O)c1)c1cccc(O)c1O
- T/C [3]: 93 % of control
- T/C (dose: 25.0 mg/kg/injection, schedule: Q01DX005 (ip), vehicle: saline with Tween-80): 102 % of control
- T/C [4]: 99 % of control and 107 % of control

Compound: CCCCC(NC(C)=O)C(=O)O (stereo unspecified)
- T/C [5]: 99 % of control and 95 % of control
- T/C [6]: 98 % of control
- T/C [7]: 100 % of control and 96 % of control
- T/C (dose: 400.0 mg/kg/injection, schedule: Q01DX009 (ip), vehicle: saline with Tween-80): 100 % of control

Compound: CC1=Nc2ccc(C)cc2N=C(C)C1
- T/C [8]: 86 % of control
- T/C [9]: 91 % of control

Compound: O=C(NN1CCOCC1)C(F)(F)F
- T/C [10]: 100 % of control
- T/C [11]: 99 % of control
- T/C [12]: 99 % of control

Compound: CSC1(c2ccccc2NS(=O)(=O)c2ccccc2)SCCS1
- T/C (dose: 50.0 mg/kg/injection, schedule: Q04DX003 (ip), vehicle: saline): 102 % of control
- T/C (dose: 100.0 mg/kg/injection, schedule: Q04DX003 (ip), vehicle: saline): 92 % of control
- T/C (dose: 200.0 mg/kg/injection, schedule: Q04DX003 (ip), vehicle: saline): 89 % of control

Compound: CC1C(=O)OC2C1CCC1(C)CCC(=O)C(C)C21 (stereo unspecified)
- T/C (dose: 100.0 mg/kg/injection, schedule: Q04DX002 (ip), vehicle: saline with Tween-80): 101 % of control

Compound: CC(NC(=O)C(c1ccccc1)c1ccccc1)C(=O)O (stereo unspecified)
- T/C [13]: 97 % of control
- T/C [14]: 107 % of control
- T/C [15]: 97 % of control

Compound: CC([OH2+])CNCCN.CC([OH2+])CNCCN.O=[N+]([O-])[O-].[Ni+2] (stereo unspecified)
- T/C (dose: 3.13 mg/kg/injection, schedule: Q01DX009 (ip), vehicle: saline): 87 % of control
- T/C (dose: 6.25 mg/kg/injection, schedule: Q01DX009 (ip), vehicle: saline): 88 % of control
- T/C (dose: 12.5 mg/kg/injection, schedule: Q01DX009 (ip), vehicle: saline): 102 % of control and 87 % of control

Compound: CCC1=C(C)c2cc3[n-]c(cc4nc(cc5[n-]c(cc1n2)c(C)c5CCC(=O)OC)C(CCC(=O)OC)=C4C)c(C)c3CC.[Ni+2]
- T/C (dose: 18.75 mg/kg/injection, schedule: Q01DX009 (ip), vehicle: saline with Tween-80): 87 % of control
- T/C (dose: 37.5 mg/kg/injection, schedule: Q01DX009 (ip), vehicle: saline with Tween-80): 87 % of control
- T/C (dose: 75.0 mg/kg/injection, schedule: Q01DX009 (ip), vehicle: saline with Tween-80): 94 % of control

Compound: CCn1cc(C(=O)O)c(=O)c2ccc(-c3cn[nH]c3C)nc21
- T/C (dose: 50.0 mg/kg/injection, schedule: Q04DX003 (ip), vehicle: suspension in saline): 106 % of control
- T/C (dose: 100.0 mg/kg/injection, schedule: Q04DX003 (ip), vehicle: suspension in saline): 107 % of control
- T/C (dose: 200.0 mg/kg/injection, schedule: Q04DX003 (ip), vehicle: suspension in saline): 106 % of control

Compound: CS/C(N)=N\NC(=O)COc1ccc(Cl)cc1
- T/C [4]: 100 % of control
- T/C (dose: 100.0 mg/kg/injection, schedule: Q01DX005 (ip), vehicle: saline with Tween-80): 106 % of control
- T/C (dose: 200.0 mg/kg/injection, schedule: Q01DX005 (ip), vehicle: saline with Tween-80): 100 % of control

Compound: CNC(=O)c1cc2ccccc2o/c1=N/NC(N)=O
- T/C [10]: 103 % of control
- T/C [11]: 103 % of control
- T/C [12]: 96 % of control

Compound: NC(Cc1cnc[nH]1)C(=O)NC(CO)C(=O)O (stereo not drawn) (H-His-Ser-OH; configuration not given here)
- T/C [1]: 96 % of control
- T/C [2]: 99 % of control
- T/C (dose: 240.0 mg/kg/injection, schedule: Q01DX005 (ip), vehicle: saline): 100 % of control

Compound: CCCCCCCCCCCCCCCC(=O)N(CC#CCN(CCCN(C)C)C(=O)CCCCCCCCCCCCCCC)CCCN(C)C
- T/C (dose: 25.0 mg/kg/injection, schedule: Q01DX009 (ip), vehicle: other): 95 % of control
- T/C (dose: 50.0 mg/kg/injection, schedule: Q01DX009 (ip), vehicle: other): 87 % of control

Compound: CC(=O)c1ccc(O)c(CN(CCC#N)CCC#N)c1O
- T/C [5]: 96 % of control
- T/C [6]: 89 % of control
- T/C [7]: 90 % of control

Compound: N#CC(C(N)=O)C1(C(C#N)C(N)=O)C(=O)Nc2ccccc21 (stereo unspecified)
- T/C (dose: 25.0 mg/kg/injection, schedule: Q01DX005 (ip), vehicle: Klucel (hydroxypropylcellulose) (HPC)): 103 % of control
- T/C [13]: 100 % of control
- T/C [14]: 98 % of control
- T/C [15]: 100 % of control

Compound: NCc1ccccc1
- T/C [8]: 103 % of control and 95 % of control
- T/C [9]: 101 % of control and 109 % of control

Compound: OC1C=CC2CCC1C2 (stereo unspecified)
- T/C [5]: 107 % of control
- T/C [6]: 114 % of control
- T/C [7]: 115 % of control

Compound: Cc1ccc(/C=C/C(=O)C(CN(C)C)CN(C)C)cc1C
- T/C (dose: 6.25 mg/kg/injection, schedule: Q01DX005 (ip), vehicle: saline with Tween-80): 100 % of control
- T/C [3]: 109 % of control

Compound: COc1ccc(C(=O)N2C(=O)CCC2=O)cc1
- T/C [16]: 109 % of control
- T/C [17]: 115 % of control
- T/C (dose: 100.0 mg/kg/injection, schedule: Q04DX003 (ip), vehicle: Klucel (hydroxypropylcellulose) (HPC)): 113 % of control
- T/C (dose: 200.0 mg/kg/injection, schedule: Q04DX003 (ip), vehicle: Klucel (hydroxypropylcellulose) (HPC)): 113 % of control
- T/C (dose: 400.0 mg/kg/injection, schedule: Q04DX003 (ip), vehicle: Klucel (hydroxypropylcellulose) (HPC)): 114 % of control

Compound: CC1(C)CN=C(NN=C(/C=C/c2ccc(C(F)(F)F)cc2)/C=C/c2ccc(C(F)(F)F)cc2)NC1
- T/C (dose: 60.0 mg/kg/injection, schedule: Q01DX005 (ip), vehicle: Klucel (hydroxypropylcellulose) (HPC)): 98 % of control
- T/C (dose: 120.0 mg/kg/injection, schedule: Q01DX005 (ip), vehicle: Klucel (hydroxypropylcellulose) (HPC)): 98 % of control

Compound: O=C1C2C(C(=O)N1c1ccc(OCc3ccccc3)cc1)C1c3ccccc3C2C2CCCCN21 (stereo unspecified)
- T/C (dose: 3.13 mg/kg/injection, schedule: Q01DX009 (ip), vehicle: water): 100 % of control
- T/C [18]: 105 % of control
- T/C [19]: 109 % of control
- T/C (dose: 25.0 mg/kg/injection, schedule: Q01DX009 (ip), vehicle: water): 111 % of control

Compound: CCCCCCCCC(C(=O)c1ccccc1)=C(C(F)(F)F)C(F)(F)F
- T/C (dose: 25.0 mg/kg/injection, schedule: Q04DX003 (ip), vehicle: saline with Tween-80): 100 % of control
- T/C (dose: 50.0 mg/kg/injection, schedule: Q04DX003 (ip), vehicle: saline with Tween-80): 95 % of control
- T/C (dose: 100.0 mg/kg/injection, schedule: Q04DX003 (ip), vehicle: saline with Tween-80): 104 % of control

Compound: Clc1ccc(/C=C/c2ccc3ccccc3n2)cc1
- T/C [16]: 109 % of control
- T/C [17]: 102 % of control
- T/C (dose: 200.0 mg/kg/injection, schedule: Q01DX009 (ip), vehicle: Klucel (hydroxypropylcellulose) (HPC)): 107 % of control
- T/C (dose: 400.0 mg/kg/injection, schedule: Q01DX009 (ip), vehicle: Klucel (hydroxypropylcellulose) (HPC)): 93 % of control

Compound: O=C(NCCNC(=O)Nc1ccccc1S(=O)(=O)F)Nc1ccccc1S(=O)(=O)F
- T/C [5]: 96 % of control
- T/C [6]: 97 % of control
- T/C [7]: 93 % of control

Compound: O=NNc1nccs1
- T/C (dose: 1.56 mg/kg/injection, schedule: Q01DX009 (ip), vehicle: water): 96 % of control
- T/C (dose: 3.12 mg/kg/injection, schedule: Q01DX009 (ip), vehicle: water): 100 % of control
- T/C [18]: 99 % of control
- T/C [19]: 97 % of control

Compound: COc1ccc(C=C2C=C(C(C)(C)C)C(=O)C(C(C)(C)C)=C2)cc1
- T/C (dose: 50.0 mg/kg/injection, schedule: Q01DX005 (ip), vehicle: distilled water + alcohol): 108 % of control
- T/C (dose: 100.0 mg/kg/injection, schedule: Q01DX005 (ip), vehicle: distilled water + alcohol): 96 % of control
- T/C (dose: 200.0 mg/kg/injection, schedule: Q01DX005 (ip), vehicle: distilled water + alcohol): 108 % of control

Compound: Cc1cc2nc3n(c2cc1C)C(=O)c1cc2ccccc2cc1-3
- T/C (dose: 3.12 mg/kg/injection, schedule: Q01DX009 (ip), vehicle: saline with Tween-80): 97 % of control
- T/C (dose: 6.25 mg/kg/injection, schedule: Q01DX009 (ip), vehicle: saline with Tween-80): 94 % of control
- T/C (dose: 25.0 mg/kg/injection, schedule: Q01DX009 (ip), vehicle: saline with Tween-80): 88 % of control
